Test results from patent US20190060325A1, “STABILIZED SOLID DOSAGE FORM” (SHIONOGI & CO., LTD., priority 2016, published 2019).

Assay: Effect of excipients on suppression of related substance formation (compound (IV) alone or mixed with excipient, stored at 60° C. for two weeks, HPLC)
Assay type: physicochemical
Conditions: compound (IV) only; for Relative amount (%) of related substance C after storage of 60° C./2 W: 60° C. two weeks
Procedure: Effect of excipients on suppression of related substance formation was examined. The excipients were physically (dry) mixed or were wet-kneaded using purified water with the compound (IV) in designated ratios in Table 1. The wet-kneaded materials were dried at 60° C. with ventilation. The dried materials were subdivided in glass bottles and the bottles were capped. The capped samples were stored at 60° C. for two weeks and the effect on suppression of related substance formation was estimated by the increased amount of related substances.
The relative amounts of the related substances in a 25 mg tablet obtained in the following Examples were determined by HPLC under the following conditions.
Detector: Ultraviolet spectrophotometer (wavelength: 245 nm)
Column: Unison UK-C18, 3 μm, 4.6×100 mm (Imtakt)
Column temperature: 40° C. Solution A: 0.1% trifluoroacetic acid solution
Flow rate: About 1.0 mL/min
• Compound (IV): 9 to 10 min; • Related substance A: 20 to 21 min; • Related substance B: 21 to 22 min; • Related substance C: 22 to 23 min; • Related substance D: 28 to 29 min; • Related substance E: 36 to 37 min. Injection volume: 10 μL Analytical time: 45 min
Related substances of compound (IV) were calculated by the following equation.
As: Peak area of compound (IV) in a standard solution Ai: Peak area of individual related substance ΣAi: Sum of peak area of individual related substance

**Q.** With `C[C@@]1(c2cc(NC(=O)c3ccc(C#N)cn3)ccc2F)C=CSC(N)=N1` [compound (IV)] as the compound, how does the “Relative amount (%) of related substance C after storage of 60° C./2 W” value (milled, capped glass bottle, % peak area of HPLC) read?
**A.** 0.19%

**Q.** What about the “Relative amount (%) of related substance C, Initial” value (milled, before storage) of the same compound?
**A.** (Initial: 0.05%)

**Q.** What about the “Relative amount (%) of related substance C after storage of 60° C./2 W” value (wet-kneaded) of the same compound?
**A.** 0.16%
